Test results taken from paper PMC8067507, “Aryl Urea Based Scaffolds for Multitarget Drug Discovery in Anticancer Immunotherapies” (Pharmaceuticals, 2021).

Columns and labels:
Jurkat T cells = test: Jurkat T cell proliferation and population distribution in co-cultures with HT-29; format: cell-based, human; details: co-cultured with HT-29, 10 μM, 24 h
From the text: We also determine Jurkat T cell proliferation in those co-cultures from the corresponding media by flow cytometry. […] All samples provided similar population distribution except by those treated with Compound 16, in which an enhancement of size and complexity is observed.
Data provided in Figure 7 show the density of living Jurkat T cells in the treated co-cultures with HT-29. The graphics include cell distribution population by size and complexity in each case.
In 12-well plates, 10^5 HT-29 cells per well were seeded and incubated for 24 h with cell culture medium supplemented with IFN-γ (10 ng/mL; human, Invitrogen®) then medium was change by one containing 4 × 10^5 Jurkat T cells per well and 10 μM of the corresponding compound or DMSO for the control. After 24 h of incubation, supernatants were collected to determine Jurkat T cell living cells and, on the other hand, HT-29 cells were collected with trypsin. Both types of suspension cells were counted with the Neubauer chamber and trypan blue and also by flow cytometry.

[1] = tested on: A549 (pulmonary adenocarcinoma); test: Cell proliferation assay (MTT); format: cell-based; details: Homo sapiens, A549, 48 h, 2 days incubation, average ± SD of three experiments
[2] = tested on: HT-29 (colon adenocarcinoma); test: Cell proliferation assay (MTT); format: cell-based; details: Homo sapiens, HT-29, 48 h, 2 days incubation, average ± SD of three experiments
[3] = tested on: HEK-293 (human embryonic kidney cells); test: Cell proliferation assay (MTT); format: cell-based; details: HEK293, 48 h, 2 days incubation, average ± SD of three experiments
VEGFR-2 = VEGFR-2 (Homo sapiens, UniProt P35968); test: VEGFR-2 quantification by flow cytometry in HT-29; format: cell-based; parameters: Both membrane and total VEGFR-2 were relatively determined using dimethyl sulfoxide (DMSO) treated cells as a negative control; endogenous in cells; host or cells: HT-29 (colon adenocarcinoma) and HMEC-1 (human microvascular endothelial cells); details: 24 h
Procedure: We performed the study on both a HT-29 cancer cell line and a human microvessel endothelial cell line (HMEC-1). […] The effect of these selected derivatives on VEGFR-2, on HT-29 tumor cell line and on human microvessel endothelial cells (HMEC) was determined by flow cytometry technique. […] For these assays, cells were incubated for 24 h in the presence of the corresponding compounds at 10 µM concentration.

[4] = HT-29, 10 µM, relative to DMSO control

Sequence of VEGFR-2 (P35968 20-1356): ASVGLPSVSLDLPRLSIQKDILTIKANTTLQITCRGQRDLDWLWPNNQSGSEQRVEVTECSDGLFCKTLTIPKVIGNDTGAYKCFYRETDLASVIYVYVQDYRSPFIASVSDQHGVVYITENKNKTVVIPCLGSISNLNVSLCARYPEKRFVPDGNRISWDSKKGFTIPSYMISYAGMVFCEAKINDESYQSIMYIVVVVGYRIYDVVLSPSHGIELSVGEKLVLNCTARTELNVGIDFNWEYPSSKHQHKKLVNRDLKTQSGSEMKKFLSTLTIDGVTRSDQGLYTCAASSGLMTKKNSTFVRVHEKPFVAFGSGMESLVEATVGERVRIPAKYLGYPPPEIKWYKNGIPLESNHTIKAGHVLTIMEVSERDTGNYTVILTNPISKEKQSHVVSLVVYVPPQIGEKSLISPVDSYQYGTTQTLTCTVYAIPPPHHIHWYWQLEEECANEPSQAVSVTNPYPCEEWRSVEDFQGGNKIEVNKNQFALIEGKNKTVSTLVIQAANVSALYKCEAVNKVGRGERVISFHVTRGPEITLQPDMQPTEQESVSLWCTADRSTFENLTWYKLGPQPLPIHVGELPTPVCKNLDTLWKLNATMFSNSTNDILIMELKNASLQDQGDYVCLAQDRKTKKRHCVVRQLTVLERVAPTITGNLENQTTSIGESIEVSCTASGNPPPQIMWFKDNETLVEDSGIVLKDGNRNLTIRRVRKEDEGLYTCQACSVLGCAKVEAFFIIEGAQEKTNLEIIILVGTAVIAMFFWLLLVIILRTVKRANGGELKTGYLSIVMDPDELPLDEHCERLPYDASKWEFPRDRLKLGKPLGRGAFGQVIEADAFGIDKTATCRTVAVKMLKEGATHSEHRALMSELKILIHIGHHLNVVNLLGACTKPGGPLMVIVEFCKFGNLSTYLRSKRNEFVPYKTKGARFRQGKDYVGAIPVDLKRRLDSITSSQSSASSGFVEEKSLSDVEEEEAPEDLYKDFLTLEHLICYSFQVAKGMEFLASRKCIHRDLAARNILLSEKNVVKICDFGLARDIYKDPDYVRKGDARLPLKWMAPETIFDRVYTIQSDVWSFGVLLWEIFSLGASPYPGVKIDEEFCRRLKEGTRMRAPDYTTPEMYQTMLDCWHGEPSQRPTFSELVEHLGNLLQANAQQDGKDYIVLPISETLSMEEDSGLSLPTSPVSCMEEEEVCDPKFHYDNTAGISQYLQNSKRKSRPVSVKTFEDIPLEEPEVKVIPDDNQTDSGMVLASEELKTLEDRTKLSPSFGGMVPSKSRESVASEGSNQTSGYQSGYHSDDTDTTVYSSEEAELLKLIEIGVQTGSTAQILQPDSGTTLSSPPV

With `COc1ccc(/C=C\c2cccc(NC(=O)Nc3ccc(Br)cc3)c2)cc1` [Compound 16] the “effect on Jurkat T cell proliferation” value (Jurkat T cells) was “hardly affect proliferation of T cell”, the “effect on T cell size and complexity (morphology)” value (Jurkat T cells) was “an increase on their size and complexity” and the IC50 [1] was 12 ± 2 µM. The IC50 [2] was 17 ± 1 µM, the IC50 [3] was 10 ± 2 µM and the inhibition at 10 µM (VEGFR-2; 10 µM, statement for HT-29 and HMEC-1, read-out: inhibition of both membrane and total VEGFR-2) was > 50%. For the same molecule, the “Membrane VEGFR-2 (%)” value (VEGFR-2; [4]) was 39 ± 9% and the “Total VEGFR-2 (%)” value (VEGFR-2; [4]) was 55 ± 10%.
